Experimental data taken from ChEMBL document CHEMBL1201862, “PubChem BioAssay data set” (2004).
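Exposure lasted 48 hours, with cells grown in 96-well plates and compounds tested at five concentrations. The concentration for 50% growth inhibition is given as GI50.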 The source made the active and inactive calls. No stated cut-off is given here; in the data, active = GI50 up to about 1.1 µM and inactive = higher.

Legend:
Experiment in all cases: growth of human tumour cells (NCI), 48 h
A498 = test system: A498
BT-549 = test system: BT-549
COLO 205 = test system: COLO 205
DU-145 = test system: DU-145
EKVX = test system: EKVX
HOP-92 = test system: HOP-92
Hs-578T = test system: Hs-578T
MDA-MB-435 = test system: MDA-MB-435
MDA-N = test system: MDA-N
OVCAR-3 = test system: OVCAR-3
OVCAR-4 = test system: OVCAR-4
OVCAR-5 = test system: OVCAR-5
OVCAR-8 = test system: OVCAR-8
RXF 393 = test system: RXF 393
SF-268 = test system: SF-268
SK-MEL-2 = test system: SK-MEL-2
SK-MEL-5 = test system: SK-MEL-5
SN12C = test system: SN12C
TK-10 = test system: TK-10
UO-31 = test system: UO-31

Row | SMILES | GI50 (A498) | GI50 (BT-549) | GI50 (COLO 205) | GI50 (DU-145) | GI50 (EKVX) | GI50 (HOP-92) | GI50 (Hs-578T) | GI50 (MDA-MB-435) | GI50 (MDA-N) | GI50 (OVCAR-3) | GI50 (OVCAR-4) | GI50 (OVCAR-5) | GI50 (OVCAR-8) | GI50 (RXF 393) | GI50 (SF-268) | GI50 (SK-MEL-2) | GI50 (SK-MEL-5) | GI50 (SN12C) | GI50 (TK-10) | GI50 (UO-31)
1 | c1cncc(-c2cc(-c3cc(-c4cccnc4)[nH]n3)n[nH]2)c1 | > 100 µM (inactive) | > 100 µM (inactive) | > 100 µM (inactive) | > 100 µM (inactive) | > 100 µM (inactive) | > 100 µM (inactive) | > 100 µM (inactive) | > 100 µM (inactive) | > 100 µM (inactive) | > 100 µM (inactive) | > 100 µM (inactive) | > 100 µM (inactive) | > 100 µM (inactive) | > 100 µM (inactive) | > 100 µM (inactive) | > 100 µM (inactive) | > 100 µM (inactive) | > 100 µM (inactive) | > 100 µM (inactive) | > 100 µM (inactive)
2 | CC(=O)NCCCCN(CCCNC(C)=O)C(=O)CNS(=O)(=O)c1cccc2c(N(C)C)cccc12 | > 100 µM (inactive) | > 100 µM (inactive) | > 100 µM (inactive) | > 100 µM (inactive) | > 100 µM (inactive) | > 100 µM (inactive) | > 100 µM (inactive) | > 100 µM (inactive) | > 100 µM (inactive) | > 100 µM (inactive) | > 100 µM (inactive) | > 100 µM (inactive) | – | > 100 µM (inactive) | > 100 µM (inactive) | > 100 µM (inactive) | > 100 µM (inactive) | > 100 µM (inactive) | > 100 µM (inactive) | > 100 µM (inactive)
3 | CC1=CC(c2ccccc2)n2c(nc3cc4ccccc4cc32)N1 (stereo not given) | > 100 µM (inactive) | > 100 µM (inactive) | > 100 µM (inactive) | > 100 µM (inactive) | > 100 µM (inactive) | > 100 µM (inactive) | > 100 µM (inactive) | > 100 µM (inactive) | > 100 µM (inactive) | > 100 µM (inactive) | > 100 µM (inactive) | > 100 µM (inactive) | > 100 µM (inactive) | > 100 µM (inactive) | > 100 µM (inactive) | > 100 µM (inactive) | > 100 µM (inactive) | – | > 100 µM (inactive) | > 100 µM (inactive)
4 | Clc1ccc(/N=C/C=C/Nc2ccc(Cl)cn2)nc1 | 20.1 µM (inactive) | 17.2 µM (inactive) | 12.6 µM (inactive) | 17.5 µM (inactive) | 0.714 µM (active) | 16.3 µM (inactive) | 5.14 µM (inactive) | 14.5 µM (inactive) | 15.1 µM (inactive) | 13.5 µM (inactive) | 7.52 µM (inactive) | 16.3 µM (inactive) | 10.4 µM (inactive) | 18.4 µM (inactive) | 16.4 µM (inactive) | 15.6 µM (inactive) | 13.7 µM (inactive) | 14.5 µM (inactive) | 19.1 µM (inactive) | 15.6 µM (inactive)
5 | O=C1CN(c2ccc(Cl)cc2)C(=O)CN1CCN1CC(=O)N(c2ccc(Cl)cc2)CC1=O | > 100 µM (inactive) | > 100 µM (inactive) | > 100 µM (inactive) | > 100 µM (inactive) | > 100 µM (inactive) | > 100 µM (inactive) | > 100 µM (inactive) | > 100 µM (inactive) | > 100 µM (inactive) | > 100 µM (inactive) | > 100 µM (inactive) | > 100 µM (inactive) | > 100 µM (inactive) | > 100 µM (inactive) | > 100 µM (inactive) | – | > 100 µM (inactive) | > 100 µM (inactive) | > 100 µM (inactive) | > 100 µM (inactive)
6 | Cc1cc2nc3[nH]nc(N)c3nc2cc1C | > 100 µM (inactive) | > 100 µM (inactive) | 44.4 µM (inactive) | 36.6 µM (inactive) | 31.4 µM (inactive) | > 100 µM (inactive) | 52.7 µM (inactive) | > 100 µM (inactive) | > 100 µM (inactive) | – | > 100 µM (inactive) | > 100 µM (inactive) | 88.7 µM (inactive) | 32.3 µM (inactive) | > 100 µM (inactive) | > 100 µM (inactive) | – | > 100 µM (inactive) | > 100 µM (inactive) | > 100 µM (inactive)
7 | C/C(=N/NC(=S)N(Cc1ccccn1)Cc1ccccn1)c1cnccn1 | 9.84 µM (inactive) | 0.646 µM (active) | 0.0861 µM (active) | 0.713 µM (active) | 0.189 µM (active) | 1.23 µM (inactive) | 6.46 µM (inactive) | 0.897 µM (active) | 2.67 µM (inactive) | 0.646 µM (active) | 0.288 µM (active) | 1.26 µM (inactive) | 0.0303 µM (active) | 2.52 µM (inactive) | 0.418 µM (active) | 3.41 µM (inactive) | 0.432 µM (active) | 0.208 µM (active) | 0.071 µM (active) | –
8 | O=C(NCCCl)N(O)C(=O)Nc1ccccc1 | > 100 µM (inactive) | > 100 µM (inactive) | > 100 µM (inactive) | 35.4 µM (inactive) | > 100 µM (inactive) | > 100 µM (inactive) | > 100 µM (inactive) | > 100 µM (inactive) | > 100 µM (inactive) | > 100 µM (inactive) | > 100 µM (inactive) | > 100 µM (inactive) | > 100 µM (inactive) | > 100 µM (inactive) | > 100 µM (inactive) | > 100 µM (inactive) | 98.2 µM (inactive) | > 100 µM (inactive) | > 100 µM (inactive) | > 100 µM (inactive)
9 | O=C(O)c1cc(NC2=C(Cl)C(=O)c3c(O)ccc(O)c3C2=O)ccc1O | > 10 µM (inactive) | > 10 µM (inactive) | > 10 µM (inactive) | > 10 µM (inactive) | > 10 µM (inactive) | > 10 µM (inactive) | > 10 µM (inactive) | > 10 µM (inactive) | > 10 µM (inactive) | > 10 µM (inactive) | > 10 µM (inactive) | > 10 µM (inactive) | > 10 µM (inactive) | – | > 10 µM (inactive) | – | > 10 µM (inactive) | > 10 µM (inactive) | > 10 µM (inactive) | > 10 µM (inactive)
10 | Cc1cc(-c2nc3ccc(F)cc3s2)ccc1NC(=O)[C@H](C)N | 9.02 µM (inactive) | 13.7 µM (inactive) | 9.77 µM (inactive) | 12.7 µM (inactive) | 8.38 µM (inactive) | 10.7 µM (inactive) | 10.8 µM (inactive) | 2.49 µM (inactive) | 2.61 µM (inactive) | 8.59 µM (inactive) | 10.2 µM (inactive) | 4.56 µM (inactive) | 11.6 µM (inactive) | 7.91 µM (inactive) | 10 µM (inactive) | 12.4 µM (inactive) | 12.9 µM (inactive) | 14.8 µM (inactive) | – | 4.14 µM (inactive)
11 | O=C(NNc1cn[nH]c(=O)n1)c1cccc2nc3ccccc3nc12 | > 100 µM (inactive) | > 100 µM (inactive) | > 100 µM (inactive) | 85.3 µM (inactive) | 35.8 µM (inactive) | 45.2 µM (inactive) | 63.2 µM (inactive) | > 100 µM (inactive) | > 100 µM (inactive) | 68.7 µM (inactive) | 68.2 µM (inactive) | > 100 µM (inactive) | 39.3 µM (inactive) | 21.7 µM (inactive) | 38.7 µM (inactive) | 34.9 µM (inactive) | > 100 µM (inactive) | 60.1 µM (inactive) | 24.3 µM (inactive) | –
12 | COc1ccccc1NC(=O)C(=O)Cc1cnc2ccccc2n1 | > 100 µM (inactive) | > 100 µM (inactive) | > 100 µM (inactive) | > 100 µM (inactive) | – | > 100 µM (inactive) | > 100 µM (inactive) | > 100 µM (inactive) | > 100 µM (inactive) | > 100 µM (inactive) | > 100 µM (inactive) | > 100 µM (inactive) | > 100 µM (inactive) | > 100 µM (inactive) | > 100 µM (inactive) | > 100 µM (inactive) | > 100 µM (inactive) | > 100 µM (inactive) | – | > 100 µM (inactive)
13 | S=C(N/N=C(\C(=N/NC(=S)N1CCCCC1)c1ccccn1)c1ccccn1)N1CCCCC1 | 32.7 µM (inactive) | 78.2 µM (inactive) | 6.38 µM (inactive) | 14.9 µM (inactive) | 80 µM (inactive) | 64.3 µM (inactive) | 28.8 µM (inactive) | 38.4 µM (inactive) | 57.8 µM (inactive) | 3.63 µM (inactive) | – | 51.2 µM (inactive) | 27.9 µM (inactive) | 18 µM (inactive) | 5.55 µM (inactive) | – | 5.5 µM (inactive) | – | 19.4 µM (inactive) | 19.2 µM (inactive)
14 | COc1cc(C(=O)N(C)N(C)C)cc(OC)c1OC | > 10 µM (inactive) | > 10 µM (inactive) | > 10 µM (inactive) | > 10 µM (inactive) | > 10 µM (inactive) | > 10 µM (inactive) | > 10 µM (inactive) | > 10 µM (inactive) | > 10 µM (inactive) | > 10 µM (inactive) | > 10 µM (inactive) | > 10 µM (inactive) | > 10 µM (inactive) | > 10 µM (inactive) | > 10 µM (inactive) | > 10 µM (inactive) | > 10 µM (inactive) | > 10 µM (inactive) | > 10 µM (inactive) | > 10 µM (inactive)
15 | O=C1NC2(CCN(CCc3ccccc3)CC2)Oc2ccccc21 | 68.1 µM (inactive) | 39 µM (inactive) | 31.5 µM (inactive) | > 100 µM (inactive) | 69.2 µM (inactive) | 24.7 µM (inactive) | 15.3 µM (inactive) | 53.5 µM (inactive) | 41.6 µM (inactive) | 77.6 µM (inactive) | > 100 µM (inactive) | 44.2 µM (inactive) | 64.7 µM (inactive) | 22.4 µM (inactive) | > 100 µM (inactive) | > 100 µM (inactive) | 14.5 µM (inactive) | 99.5 µM (inactive) | > 100 µM (inactive) | 49 µM (inactive)
